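Briefly, cells in 96-well plates were exposed to five compound concentrations for 48 h, and endpoints were estimated by linear interpolation. TGI denotes the concentration required for complete inhibition of growth.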
How the values were obtained:
Assay in all cases: inhibition of tumour cell growth, NCI panel, 48 h
HCC-2998 colon = test system: HCC-2998 colon
BT-549 breast = test system: BT-549 breast
NCI-H226 lung = test system: NCI-H226 lung
MDA-MB-435 = test system: MDA-MB-435
A549 NSCLC = test system: A549 NSCLC
OVCAR-3 ovarian = test system: OVCAR-3 ovarian
HCT-15 colon = test system: HCT-15 colon
SR leukemia = test system: SR leukemia
MDA-N = test system: MDA-N
MALME-3M melanoma = test system: MALME-3M melanoma
PC-3 prostate = test system: PC-3 prostate
SNB-19 CNS = test system: SNB-19 CNS
UACC-257 melanoma = test system: UACC-257 melanoma
KM12 colon = test system: KM12 colon
SNB-75 CNS = test system: SNB-75 CNS
A498 renal = test system: A498 renal
OVCAR-5 ovarian = test system: OVCAR-5 ovarian
OVCAR-4 ovarian = test system: OVCAR-4 ovarian
ACHN renal = test system: ACHN renal
UO-31 renal = test system: UO-31 renal
CAKI-1 renal = test system: CAKI-1 renal
RPMI-8226 leukemia = test system: RPMI-8226 leukemia
CCRF-CEM leukemia = test system: CCRF-CEM leukemia
NCI/ADR-RES ovarian = test system: NCI/ADR-RES ovarian
NCI-H522 lung = test system: NCI-H522 lung
SK-MEL-28 melanoma = test system: SK-MEL-28 melanoma
SK-MEL-2 melanoma = test system: SK-MEL-2 melanoma
SK-OV-3 ovarian = test system: SK-OV-3 ovarian
LOX IMVI melanoma = test system: LOX IMVI melanoma
SF-268 CNS = test system: SF-268 CNS
UACC-62 melanoma = test system: UACC-62 melanoma
IGROV1 ovarian = test system: IGROV1 ovarian
M14 melanoma = test system: M14 melanoma
OVCAR-8 ovarian = test system: OVCAR-8 ovarian
786-0 renal = test system: 786-0 renal
NCI-H23 lung = test system: NCI-H23 lung
NCI-H460 lung = test system: NCI-H460 lung
MCF7 breast = test system: MCF7 breast
MOLT-4 leukemia = test system: MOLT-4 leukemia
SW-620 colon = test system: SW-620 colon
TK-10 renal = test system: TK-10 renal
HS 578T breast = test system: HS 578T breast
SK-MEL-5 melanoma = test system: SK-MEL-5 melanoma
T-47D breast = test system: T-47D breast
HOP-62 NSCLC = test system: HOP-62 NSCLC
EKVX NSCLC = test system: EKVX NSCLC
U251 CNS = test system: U251 CNS
SN12C renal = test system: SN12C renal
DU-145 prostate = test system: DU-145 prostate
HL-60(TB) leukemia = test system: HL-60(TB) leukemia
RXF 393 renal = test system: RXF 393 renal
HCT-116 colon = test system: HCT-116 colon
SF-295 CNS = test system: SF-295 CNS
K-562 leukemia = test system: K-562 leukemia
MDA-MB-231 breast = test system: MDA-MB-231 breast
SF-539 CNS = test system: SF-539 CNS
COLO 205 colon = test system: COLO 205 colon
HOP-92 NSCLC = test system: HOP-92 NSCLC
HT29 colon = test system: HT29 colon

CCOC(=O)N1CC2(C(=O)OC)C=CC1C(C(=O)OC)C2 (stereo not drawn)
TGI (HCC-2998 colon): > 100 µM | TGI (BT-549 breast): > 100 µM | TGI (NCI-H226 lung): > 100 µM | TGI (MDA-MB-435): > 100 µM | TGI (A549 NSCLC): > 100 µM | TGI (OVCAR-3 ovarian): > 100 µM | TGI (HCT-15 colon): > 100 µM | TGI (SR leukemia): > 100 µM | TGI (MDA-N): > 100 µM | TGI (MALME-3M melanoma): > 100 µM | TGI (PC-3 prostate): > 100 µM | TGI (SNB-19 CNS): > 100 µM | TGI (UACC-257 melanoma): > 100 µM | TGI (KM12 colon): > 100 µM | TGI (SNB-75 CNS): > 100 µM | TGI (A498 renal): > 100 µM | TGI (OVCAR-5 ovarian): > 100 µM | TGI (OVCAR-4 ovarian): > 100 µM | TGI (ACHN renal): > 100 µM | TGI (UO-31 renal): > 100 µM | TGI (CAKI-1 renal): > 100 µM | TGI (RPMI-8226 leukemia): > 100 µM | TGI (CCRF-CEM leukemia): > 100 µM | TGI (NCI/ADR-RES ovarian): > 100 µM | TGI (NCI-H522 lung): > 100 µM | TGI (SK-MEL-28 melanoma): > 100 µM | TGI (SK-MEL-2 melanoma): > 100 µM | TGI (SK-OV-3 ovarian): > 100 µM | TGI (LOX IMVI melanoma): > 100 µM | TGI (SF-268 CNS): > 100 µM | TGI (UACC-62 melanoma): > 100 µM | TGI (IGROV1 ovarian): > 100 µM | TGI (M14 melanoma): > 100 µM | TGI (OVCAR-8 ovarian): > 100 µM | TGI (786-0 renal): > 100 µM | TGI (NCI-H23 lung): > 100 µM | TGI (NCI-H460 lung): > 100 µM | TGI (MCF7 breast): > 100 µM | TGI (MOLT-4 leukemia): > 100 µM | TGI (SW-620 colon): > 100 µM | TGI (TK-10 renal): > 100 µM | TGI (HS 578T breast): > 100 µM | TGI (SK-MEL-5 melanoma): > 100 µM | TGI (T-47D breast): > 100 µM | TGI (HOP-62 NSCLC): > 100 µM | TGI (EKVX NSCLC): > 100 µM | TGI (U251 CNS): > 100 µM | TGI (SN12C renal): > 100 µM | TGI (DU-145 prostate): > 100 µM | TGI (HL-60(TB) leukemia): > 100 µM | TGI (RXF 393 renal): > 100 µM | TGI (HCT-116 colon): > 100 µM | TGI (SF-295 CNS): > 100 µM | TGI (K-562 leukemia): > 100 µM | TGI (MDA-MB-231 breast): > 100 µM | TGI (SF-539 CNS): > 100 µM | TGI (COLO 205 colon): > 100 µM

CCCCOP(=O)(OCCCC)/C(C#N)=C/c1ccc(C)o1
TGI (HCC-2998 colon): > 100 µM | TGI (BT-549 breast): 43 µM | TGI (NCI-H226 lung): 78.8 µM | TGI (MDA-MB-435): 95.9 µM | TGI (A549 NSCLC): > 100 µM | TGI (OVCAR-3 ovarian): 57.6 µM | TGI (HCT-15 colon): > 100 µM | TGI (SR leukemia): > 100 µM | TGI (MDA-N): 95.5 µM | TGI (MALME-3M melanoma): 99.2 µM | TGI (PC-3 prostate): 51.4 µM | TGI (SNB-19 CNS): > 100 µM | TGI (UACC-257 melanoma): > 100 µM | TGI (KM12 colon): > 100 µM | TGI (SNB-75 CNS): > 100 µM | TGI (A498 renal): > 100 µM | TGI (OVCAR-5 ovarian): > 100 µM | TGI (OVCAR-4 ovarian): > 100 µM | TGI (ACHN renal): > 100 µM | TGI (CAKI-1 renal): > 100 µM | TGI (RPMI-8226 leukemia): > 100 µM | TGI (NCI/ADR-RES ovarian): 64.4 µM | TGI (NCI-H522 lung): > 100 µM | TGI (SK-MEL-28 melanoma): > 100 µM | TGI (SK-MEL-2 melanoma): 77.3 µM | TGI (SK-OV-3 ovarian): > 100 µM | TGI (LOX IMVI melanoma): > 100 µM | TGI (SF-268 CNS): > 100 µM | TGI (UACC-62 melanoma): > 100 µM | TGI (IGROV1 ovarian): > 100 µM | TGI (M14 melanoma): 78.5 µM | TGI (OVCAR-8 ovarian): > 100 µM | TGI (786-0 renal): > 100 µM | TGI (NCI-H23 lung): 92.3 µM | TGI (NCI-H460 lung): > 100 µM | TGI (HOP-92 NSCLC): 79.6 µM | TGI (MCF7 breast): > 100 µM | TGI (MOLT-4 leukemia): > 100 µM | TGI (SW-620 colon): > 100 µM | TGI (TK-10 renal): > 100 µM | TGI (HS 578T breast): > 100 µM | TGI (SK-MEL-5 melanoma): 76.1 µM | TGI (T-47D breast): > 100 µM | TGI (HOP-62 NSCLC): > 100 µM | TGI (EKVX NSCLC): > 100 µM | TGI (U251 CNS): > 100 µM | TGI (SN12C renal): > 100 µM | TGI (DU-145 prostate): > 100 µM | TGI (HT29 colon): > 100 µM | TGI (RXF 393 renal): 86.1 µM | TGI (HCT-116 colon): > 100 µM | TGI (SF-295 CNS): > 100 µM | TGI (K-562 leukemia): 71.3 µM | TGI (MDA-MB-231 breast): > 100 µM | TGI (SF-539 CNS): > 100 µM | TGI (COLO 205 colon): > 100 µM

Source: PubChem BioAssay (NCI)
